In US4355026A, “4-Demethoxy,11-deoxy anthracycline derivatives” (priority 1980, dated 1982):
Values after ≈ are worked out from the molar mass of the structure shown. Where two headings read alike, the source gives them in different places.

Key:
[1] = tested on: L1210 leukemia cells, RNA synthesis; experiment: Inhibition of RNA synthesis (14C-uridine incorporation) of L1210 cultivated leukemic cells; format: cell-based; details: Mus musculus, L1210, 1 h; for IC50: read-out: IC50 RNA synthesis; for IC90: read-out: IC90 RNA synthesis
Experimental: (§1) A. Inhibitory Effect on Growth, DNA Synthesis and RNA Synthesis of L1210 Cultivated Leukemic Cells of Mice
(§2) Separately, the above L1210 cultivated cells were suspended in a concentration of 5×10^5 cells/ml in an RPMI 1640 medium containing 10% calf serum and cultivated for 1 to 2 hours in a CO2 incubator at 37° C. Then, representative test compounds were added in various concentrations, and 15 minutes later, ^14 C-uridine (0.05 μCi/ml) or ^14 C-thymidine (0.05 μCi/ml) were added. The cells were incubated at 37° C. for 60 minutes. A 10% aqueous trichloroacetic acid solution was added to the incubation medium to stop the reaction and simultaneously precipitate acid-insoluble matter. The acid-insoluble matter was washed three times with a 5 to 10% aqueous solution of trichloroacetic acid and then dissolved in formic acid. The radioactivity of the acid-insoluble matter was measured. From the ratio of incorporated radiation to that of a control group, the concentrations which inhibited radiation by 10%, 50% and 90% respectively were measured.

[2] = tested on: L1210 leukemia cells, DNA synthesis; experiment: Inhibition of DNA synthesis (14C-thymidine incorporation) of L1210 cultivated leukemic cells; format: cell-based; details: Mus musculus, L1210, 1 h; for IC50: read-out: IC50 DNA synthesis; for IC90: read-out: IC90 DNA synthesis
Experimental: as §1, §2

[3] = tested on: L1210 leukemia cells; experiment: Inhibitory effect on growth of L1210 cultivated leukemic cells of mice; format: cell-based; details: Mus musculus
Experimental: as §1
For example, L1210 cells were inoculated in a concentration of 5×10^4 cells/ml in an RPMI 1640 culture medium (Roswell Park Memorial Institute 1640) containing 20% calf serum and, simultaneously, representative compounds of the present invention were added in a concentration of 0.1 and 0.5 μg/ml. The cells were cultivated in a CO2 generator at 37° C. The 50% growth inhibitory concentration with respect to a control group was then determined.

[4] = tested on: Microccus lysodeikticus IFQ 3333; experiment: MIC on nutrient agar medium; format: cell-based
Source text: (§3) The compounds of formula I provided by the present invention are also characterized by their antimicrobial activity. Table 3 summarizes the minimum inhibitory concentrations (MIC) of representative compounds of the present invention against various microorganisms on a nutrient agar medium.

[5] = tested on: Staphylococcus aureus FDA 209; experiment: MIC on nutrient agar medium; format: cell-based; details: FDA209
Source text: as §3

[6] = tested on: Staphylococcus aureus smith; experiment: MIC on nutrient agar medium; format: cell-based
Source text: as §3

[7] = tested on: Shigella flexneri 46 JS 11811; experiment: MIC on nutrient agar medium; format: cell-based; details: 46JS11811
Source text: as §3

[8] = tested on: Klebsiella pneumonia PCI 602; experiment: MIC on nutrient agar medium; format: cell-based; details: Klebsiella pneumoniae, PCI602
Source text: as §3

[9] = tested on: Salmonella typhi T - 63; experiment: MIC on nutrient agar medium; format: cell-based; details: Salmonella enterica
Source text: as §3

[10] = tested on: Candida albicans 3147; experiment: MIC on nutrient agar medium; format: cell-based
Source text: as §3

[11] = tested on: Corynebacterium bovis 1810; experiment: MIC on nutrient agar medium; format: cell-based
Source text: as §3

[12] = tested on: Bacillus subtilis NRRB- 558; experiment: MIC on nutrient agar medium; format: cell-based; details: NRRB558
Source text: as §3

[13] = tested on: Mycobacterium smegmatis ATCC 607; experiment: MIC on nutrient agar medium; format: cell-based; details: Mycolicibacterium smegmatis, ATCC607
Source text: as §3

[14] = tested on: Sarcina lutea PCI 1001; experiment: MIC on nutrient agar medium; format: cell-based; details: Micrococcus luteus, PCI1001
Source text: as §3

[15] = tested on: Bacillus megatherium APF; experiment: MIC on nutrient agar medium; format: cell-based
Source text: as §3

[16] = tested on: Pseudomonas aeruginosa A3; experiment: MIC on nutrient agar medium; format: cell-based
Source text: as §3

[17] = tested on: Escherichia coli NIHJ; experiment: MIC on nutrient agar medium; format: cell-based
Source text: as §3

[18] = tested on: Bacillus cereus ATCC 10702; experiment: MIC on nutrient agar medium; format: cell-based; details: ATCC10702
Source text: as §3

[19] = tested on: Bacillus subtilis PCI 219; experiment: MIC on nutrient agar medium; format: cell-based; details: PCI219
Source text: as §3

[20] = tested on: Microccus flavus FDA 16; experiment: MIC on nutrient agar medium; format: cell-based
Source text: as §3

[21] = tested on: L1210 leukemia cells; experiment: Antitumor activity on CDFI mouse leukemia induced by mouse L1210 leukemia cells; format: in vivo, CDFI mice; set-up: key to Toxicity: *: Toxicity-; details: intraperitoneal, 10 consecutive days
Experimental: B. Antitumor Activity on CDFI Mouse Leukemia Induced by Mouse L1210 Leukemia cells
L1210 leukemia cells of mice were intraperitoneally transplanted in an amount of 1×10^5 cells/mouse in CDFI mice. Starting 24 hours after the transplantation, each of the test compounds was intraperitoneally administered to the mice for 10 consecutive days. the survival rate (T/C, %) was calculated in comparison with a control group (to which physiological saline was administered).

[22] = 14C-uridine, 60 minutes, 37° C.
[23] = 90% inhibition, 14C-uridine, 60 minutes, 37° C.
[24] = 14C-thymidine, 60 minutes, 37° C.
[25] = 90% inhibition, 14C-thymidine, 60 minutes, 37° C.
[26] = L1210, 24 h, 1 day later, RPMI 1640, 20% calf serum, 37° C., read-out: IC50 growth, 1 day later
[27] = L1210, 48 h, 2 days later, RPMI 1640, 20% calf serum, 37° C., read-out: IC50 growth, 2 days later
[28] = L1210, 24 h, read-out: IC50 growth, 1 day later
[29] = L1210, 48 h, read-out: IC50 growth, 2 days later

Row | SMILES | IC50 [1, 22] | IC90 [1, 23] | IC50 [2, 24] | IC90 [2, 25] | IC50 [3, 26] | IC50 [3, 27] | MIC [4] | MIC [5] | MIC [6] | MIC [7] | MIC [8] | MIC [9] | MIC [10] | MIC [11] | MIC [12] | MIC [13] | MIC [14] | MIC [15] | MIC [16] | MIC [17] | also measured
1 | CC(=O)[C@]1(O)Cc2cc3c(c(O)c2[C@@H](O[C@@H]2C[C@H](N)[C@H](O)[C@H](C)O2)C1)C(=O)c1ccccc1C3=O (single isomer, unassigned; isomer 4) [4-Demethoxy-11-deoxy-daunomycin (7S,9S,1'β)isomer, 4-Demethoxy-11-deoxydaunomycin] | 5.4 µg/mL (≈ 11.2 µM) | 14 µg/mL (≈ 29.1 µM) | 3.1 µg/mL (≈ 6.44 µM) | 15 µg/mL (≈ 31.2 µM) | 1.4 µg/mL (≈ 2.91 µM) | 0.51 µg/mL (≈ 1.06 µM) | – | – | – | – | – | – | – | – | – | – | – | – | – | – | –
2 | C[C@@H]1O[C@@H](O[C@H]2C[C@](O)(C(=O)CO)Cc3c(O)c4c(c(O)c32)C(=O)c2ccccc2C4=O)C[C@H](N)[C@@H]1O [4-Demethoxy-adriamycin, reference compound] | 1.2 µg/mL (≈ 2.34 µM) | 6 µg/mL (≈ 11.7 µM) | 1.6 µg/mL (≈ 3.12 µM) | 10 µg/mL (≈ 19.5 µM) | 0.02 µg/mL (≈ 0.0389 µM) | 0.006 µg/mL (≈ 0.0117 µM) | – | – | – | – | – | – | – | – | – | – | – | – | – | – | –
3 | C[C@@H]1O[C@@H](O[C@@H]2C[C@@](O)(C(=O)CO)Cc3cc4c(c(O)c32)C(=O)c2ccccc2C4=O)C[C@H](N)[C@@H]1O (single isomer, unassigned; isomer 4) [4-Demethoxy-11-deoxy-adriamycin (7R,9R,1'α)isomer, 4-Demethoxy-11-deoxyadriamycin] | > 10 µg/mL | > 10 µg/mL | > 10 µg/mL | > 10 µg/mL | 72.5 µg/mL (≈ 146 µM) | 72.5 µg/mL (≈ 146 µM) | > 100 µg/mL | > 100 µg/mL | > 100 µg/mL | > 100 µg/mL | > 100 µg/mL | > 100 µg/mL | > 100 µg/mL | > 100 µg/mL | > 100 µg/mL | 100 µg/mL (≈ 201 µM) | > 100 µg/mL | > 100 µg/mL | > 100 µg/mL | > 100 µg/mL | MIC [18]: > 100 µg/mL; MIC [19]: > 100 µg/mL; MIC [20]: > 100 µg/mL
4 | CC(=O)[C@@]1(O)Cc2cc3c(c(O)c2[C@H](O[C@H]2C[C@H](N)[C@H](O)[C@H](C)O2)C1)C(=O)c1ccccc1C3=O (single isomer, unassigned; isomer 4) [4-Demethoxy-11-deoxy-daunomycin (7R,9R,1'α)isomer, 4-Demethoxy-11-deoxydaunomycin] | 9 µg/mL (≈ 18.7 µM) | > 10 µg/mL | 5.4 µg/mL (≈ 11.2 µM) | 13 µg/mL (≈ 27 µM) | > 2.5 µg/mL | > 2.5 µg/mL | > 100 µg/mL | > 100 µg/mL | > 100 µg/mL | > 100 µg/mL | > 100 µg/mL | > 100 µg/mL | > 100 µg/mL | 100 µg/mL (≈ 208 µM) | 50 µg/mL (≈ 104 µM) | 100 µg/mL (≈ 208 µM) | 50 µg/mL (≈ 104 µM) | 50 µg/mL (≈ 104 µM) | > 100 µg/mL | > 100 µg/mL | MIC [18]: 50 µg/mL (≈ 104 µM); MIC [19]: 100 µg/mL (≈ 208 µM); MIC [20]: > 100 µg/mL
5 | COc1cccc2c1C(=O)c1c(O)c3c(c(O)c1C2=O)C[C@@](O)(C(C)=O)C[C@@H]3O[C@H]1C[C@H](N)[C@H](O)[C@H](C)O1 [Daunomycin, reference compound] | – | – | – | – | – | – | – | – | – | – | – | – | – | – | – | – | – | – | – | – | Survival rate (T/C, %) ([21]; 0.15 mg/kg/day): 118%; Survival rate (T/C, %) ([21]; 0.3 mg/kg/day): 132%; Survival rate (T/C, %) ([21]; 0.6 mg/kg/day): 145%; Survival rate (T/C, %) ([21]; 1.25 mg/kg/day): 191%; Survival rate (T/C, %) ([21]; 2.5 mg/kg/day): 138%; Survival, in words (dead through toxicity) ([21]; 5 mg/kg/day): dead; IC50 [1]: 0.18 µg/mL (≈ 0.341 µM); IC90 [1]: 1.8 µg/mL (≈ 3.41 µM); IC50 [2]: 0.3 µg/mL (≈ 0.569 µM); IC90 [2]: 1.8 µg/mL (≈ 3.41 µM); IC50 [3, 28]: 0.049 µg/mL (≈ 0.0929 µM); IC50 [3, 29]: 0.036 µg/mL (≈ 0.0682 µM)
6 | COc1cccc2c1C(=O)c1c(O)c3c(c(O)c1C2=O)C[C@@](O)(C(=O)CO)C[C@@H]3O[C@H]1C[C@H](N)[C@H](O)[C@H](C)O1 [Adriamycin] | – | – | – | – | – | – | – | – | – | – | – | – | – | – | – | – | – | – | – | – | Survival rate (T/C, %) ([21]; 0.15 mg/kg/day): 130%; Survival rate (T/C, %) ([21]; 0.3 mg/kg/day): 147%; Survival rate (T/C, %) ([21]; 0.6 mg/kg/day): 239%; Survival rate (T/C, %) ([21]; 1.25 mg/kg/day): 272%; Survival rate (T/C, %) ([21]; 2.5 mg/kg/day): 351%; Survival rate (T/C, %) ([21]; 5 mg/kg/day): 189%; Toxicity ([21]; 5 mg/kg/day): *; IC50 [1]: 0.68 µg/mL (≈ 1.25 µM); IC90 [1]: 6.5 µg/mL (≈ 12 µM); IC50 [2]: 1.65 µg/mL (≈ 3.04 µM); IC90 [2]: 4.5 µg/mL (≈ 8.28 µM); IC50 [3, 28]: 0.05 µg/mL (≈ 0.092 µM); IC50 [3, 29]: 0.03 µg/mL (≈ 0.0552 µM)
